Reference: PMC4029159 (Journal of medicinal chemistry, 2013)
Values joined by “and” are separate entries in the source; they are usually repeats but may differ in a detail not shown here. Equal values may be shown once.

Columns and labels:
MMP9 = MMP9 (Homo sapiens, UniProt P14780); assay: MMP assay; assay type: biochemical; settings: 10µM
MMP7 = biological target: T1, MMP7 (Homo sapiens, UniProt P09237); assay: MMP assay; assay type: biochemical; settings: 10µM
T1 sequence (P09237 95-267): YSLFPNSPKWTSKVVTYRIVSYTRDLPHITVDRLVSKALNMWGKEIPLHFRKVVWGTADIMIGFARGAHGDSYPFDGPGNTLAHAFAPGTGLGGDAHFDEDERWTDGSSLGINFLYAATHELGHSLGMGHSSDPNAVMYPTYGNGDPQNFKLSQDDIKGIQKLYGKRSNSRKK

[1] = tested on: tubulin acetylation (HDAC6 inhibition) in LNCaP cell line; assay: Western blot analysis for tubulin acetylation; assay type: cell-based; settings: LNCaP cells, 4 hours, 20 µM and IC50 concentration
HDAC1 = HDAC1 (Homo sapiens, UniProt Q13547); assay: HDAC inhibition by SAMDI mass spectrometry, HDAC1; assay type: biochemical
Jurkat J.γ = assay: Cell viability assay; assay type: cell-based
MMP13 = MMP13 (Homo sapiens, UniProt P45452); assay: MMP assay; assay type: biochemical; settings: 10µM
MMP2 = MMP2 (Homo sapiens, UniProt P08253); assay: MMP assay; assay type: biochemical; settings: 10µM
MMP3 = MMP3 (Homo sapiens, UniProt P08254); assay: MMP assay; assay type: biochemical; settings: 10µM
MMP1 = biological target: T2, MMP1 (Homo sapiens, UniProt P03956); assay: MMP assay; assay type: biochemical; settings: 10µM
T2 sequence (P03956 100-269 limits assumed): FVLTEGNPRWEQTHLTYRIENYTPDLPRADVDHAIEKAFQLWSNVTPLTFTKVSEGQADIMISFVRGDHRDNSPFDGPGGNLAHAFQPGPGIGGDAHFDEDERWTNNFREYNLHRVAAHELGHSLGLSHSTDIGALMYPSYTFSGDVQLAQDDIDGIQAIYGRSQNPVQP

MMP14 = MMP14 (Homo sapiens, UniProt P50281); assay: MMP assay; assay type: biochemical; settings: 10µM
Jurkat = assay: Cell viability assay; assay type: cell-based
DU-145 = assay: Cell viability assay; assay type: cell-based; settings: for Fold less cytotoxic than 14e, DU145: compared with 14e
LNCaP = assay: Cell viability assay; assay type: cell-based
HDAC6 = biological target: T3, HDAC6 (Homo sapiens, UniProt Q9UBN7); assay: HDAC inhibition by SAMDI mass spectrometry, HDAC6; assay type: biochemical
T3 sequence (Q9UBN7 1-1215): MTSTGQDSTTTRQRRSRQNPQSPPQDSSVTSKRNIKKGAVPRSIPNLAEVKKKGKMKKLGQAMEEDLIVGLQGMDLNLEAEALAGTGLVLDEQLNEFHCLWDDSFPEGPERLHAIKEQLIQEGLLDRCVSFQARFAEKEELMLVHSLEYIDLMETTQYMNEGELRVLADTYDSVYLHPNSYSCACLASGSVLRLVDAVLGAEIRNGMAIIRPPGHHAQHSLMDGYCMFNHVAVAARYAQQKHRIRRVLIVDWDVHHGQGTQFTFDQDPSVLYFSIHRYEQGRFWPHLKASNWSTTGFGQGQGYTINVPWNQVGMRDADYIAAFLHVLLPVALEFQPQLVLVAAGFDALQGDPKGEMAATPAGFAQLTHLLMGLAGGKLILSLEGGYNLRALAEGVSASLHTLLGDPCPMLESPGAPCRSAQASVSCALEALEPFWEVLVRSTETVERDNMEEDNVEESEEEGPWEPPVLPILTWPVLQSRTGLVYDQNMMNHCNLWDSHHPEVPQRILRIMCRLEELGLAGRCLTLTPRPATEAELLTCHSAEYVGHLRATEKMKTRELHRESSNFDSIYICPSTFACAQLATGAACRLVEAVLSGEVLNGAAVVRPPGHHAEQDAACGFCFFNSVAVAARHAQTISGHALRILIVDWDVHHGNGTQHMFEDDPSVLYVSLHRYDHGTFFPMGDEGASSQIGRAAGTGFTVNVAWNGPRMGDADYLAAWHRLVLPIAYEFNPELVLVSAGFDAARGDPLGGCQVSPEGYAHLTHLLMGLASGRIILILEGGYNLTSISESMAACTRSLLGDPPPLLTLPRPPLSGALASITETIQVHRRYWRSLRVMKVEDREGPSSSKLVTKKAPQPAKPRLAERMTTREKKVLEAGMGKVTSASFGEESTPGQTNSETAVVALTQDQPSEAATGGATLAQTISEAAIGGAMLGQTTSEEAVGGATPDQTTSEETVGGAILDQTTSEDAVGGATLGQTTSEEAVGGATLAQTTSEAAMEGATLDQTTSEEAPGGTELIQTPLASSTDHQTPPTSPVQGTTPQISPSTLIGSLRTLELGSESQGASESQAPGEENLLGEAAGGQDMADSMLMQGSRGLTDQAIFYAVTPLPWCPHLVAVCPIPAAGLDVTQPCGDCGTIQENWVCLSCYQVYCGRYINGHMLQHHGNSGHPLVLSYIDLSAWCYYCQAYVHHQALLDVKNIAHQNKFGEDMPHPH

Chain of MMP3 (P08254 100-272 limits assumed): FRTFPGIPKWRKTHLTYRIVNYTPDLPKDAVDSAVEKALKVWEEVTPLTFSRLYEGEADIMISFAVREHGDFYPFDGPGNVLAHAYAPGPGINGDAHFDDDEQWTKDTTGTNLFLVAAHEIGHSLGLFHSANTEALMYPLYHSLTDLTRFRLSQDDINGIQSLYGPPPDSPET
Chain of MMP2 (P08253 110-446 limits assumed): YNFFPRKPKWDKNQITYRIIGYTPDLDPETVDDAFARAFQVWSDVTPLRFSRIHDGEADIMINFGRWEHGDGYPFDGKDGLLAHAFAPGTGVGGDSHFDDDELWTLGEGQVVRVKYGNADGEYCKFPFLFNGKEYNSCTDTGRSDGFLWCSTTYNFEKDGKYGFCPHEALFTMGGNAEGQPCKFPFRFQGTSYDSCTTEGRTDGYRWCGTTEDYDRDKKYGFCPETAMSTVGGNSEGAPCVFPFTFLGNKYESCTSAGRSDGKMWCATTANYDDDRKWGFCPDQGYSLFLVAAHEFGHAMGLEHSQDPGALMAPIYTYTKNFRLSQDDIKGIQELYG
Chain of HDAC1 (Q13547 whole entry): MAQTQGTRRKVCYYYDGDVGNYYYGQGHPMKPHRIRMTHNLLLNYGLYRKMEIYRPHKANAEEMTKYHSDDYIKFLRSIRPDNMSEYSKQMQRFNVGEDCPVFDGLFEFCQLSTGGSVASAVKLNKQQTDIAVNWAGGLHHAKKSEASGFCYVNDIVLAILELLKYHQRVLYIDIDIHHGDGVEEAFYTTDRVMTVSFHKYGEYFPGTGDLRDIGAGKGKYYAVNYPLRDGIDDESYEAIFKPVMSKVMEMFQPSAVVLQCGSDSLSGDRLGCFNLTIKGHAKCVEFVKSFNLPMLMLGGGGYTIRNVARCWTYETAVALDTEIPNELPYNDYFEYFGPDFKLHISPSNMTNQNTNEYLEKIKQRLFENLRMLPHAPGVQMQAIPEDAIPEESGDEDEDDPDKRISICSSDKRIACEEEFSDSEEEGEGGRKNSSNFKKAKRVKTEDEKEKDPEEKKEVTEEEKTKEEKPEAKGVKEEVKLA
Chain of MMP9 (P14780 107-444 limits assumed): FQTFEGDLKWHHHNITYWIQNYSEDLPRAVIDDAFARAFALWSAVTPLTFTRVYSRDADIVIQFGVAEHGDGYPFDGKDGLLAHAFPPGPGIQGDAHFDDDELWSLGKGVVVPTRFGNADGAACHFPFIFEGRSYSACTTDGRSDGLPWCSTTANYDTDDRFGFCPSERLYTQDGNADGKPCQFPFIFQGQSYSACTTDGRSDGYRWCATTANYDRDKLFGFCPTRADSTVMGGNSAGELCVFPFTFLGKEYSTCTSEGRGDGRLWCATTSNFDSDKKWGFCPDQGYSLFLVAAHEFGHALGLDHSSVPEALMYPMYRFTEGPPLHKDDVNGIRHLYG

| SMILES | Effect on MMP9 activity (MMP9) | Effect on MMP7 activity (MMP7) | Tubulin acetylation level (Western blot) [1] | HDAC1 inhibition, in words (HDAC1) | Effect on MMP13 activity (MMP13) | Effect on MMP2 activity (MMP2) | Effect on MMP3 activity (MMP3) | Effect on MMP1 activity (MMP1) | Effect on MMP14 activity (MMP14) | Fold less cytotoxic than 14e, DU145 (DU-145) [fold] | Activity against Jurkat Jγ, in words (Jurkat J.γ) | also measured |
| --- | --- | --- | --- | --- | --- | --- | --- | --- | --- | --- | --- | --- |
| Oc1cccn(CCCCCn2cc(-c3ccccc3)nn2)c1=S [Compound 10d, 1-Phenyltriazolylpentyl-3-hydroxypyridin-2-thione] | inactive | inactive | increased tubulin acetylation but to a lesser extent than SAHA | inactive | halved | inactive | inactive | inactive | inactive | – | – | IC50 (Jurkat J.γ; Homo sapiens, Jurkat, 72 h, read-out: Cellular IC50 Jurkat J.γ, 72 hours, MTS): 1000 nM |
| Oc1cccn(CCCCCCCn2cc(-c3ccccc3)nn2)c1=S [Compound 10f, 1-Phenyltriazolylheptyl-3-hydroxypyridin-2-thione] | – | – | – | – | – | – | – | – | – | 3 | – | Fold less cytotoxic than 14e, wild type Jurkat (Jurkat; relative to 14e): 3 fold; Fold less cytotoxic than 10d, wild type Jurkat (Jurkat; relative to 10d): 3 fold; Fold less cytotoxic than 10d, DU145 (DU-145; compared with 10d): 2 fold; Fold less cytotoxic than 14e, LNCaP (LNCaP; compared with 14e): 3 fold; Fold less cytotoxic than 10d, LNCaP (LNCaP; compared with 10d): 2 fold |
| Cc1ccccc1-c1cn(CCCCCn2cccc(O)c2=S)nn1 [Compound 14c, 1-(2-Tolyl)triazolylpentyl-3-hydroxypyridin-2-thione] | – | – | – | – | – | – | – | – | – | 2 | – | – |
| N#Cc1cccc(-c2cn(CCCCCn3cccc(O)c3=S)nn2)c1 [Compound 14e, 1-(3-Benzonitrile)triazolylpentyl-3-hydroxypyridin-2-thione] | inactive | inactive | increased tubulin acetylation but to a lesser extent than SAHA | inactive | halved | inactive | inactive | inactive | inactive | – | – | Fold more potent than 10d, DU145 (DU-145; relative to 10d): about 2 fold; Fold more potent than 10d, LNCaP (LNCaP; relative to 10d): about 2 fold; HDAC6 potency, fold more effective than 14b (HDAC6; relative to 14b): 3 fold; HDAC6 potency, fold more effective than 10d (HDAC6; relative to 10d): 2.5 fold and 3 fold |
| O=C(CCCCCCC(=O)Nc1ccccc1)NO [SAHA, suberoylanilide hydroxamic acid] | – | – | – | – | – | – | – | – | – | – | inactive | – |
| CN1CCc2c(c3ccccc3n2Cc2ccc(C(=O)NO)cc2)C1 [Tubastatin A, reference compound] | – | – | – | – | – | – | – | – | – | – | inactive | Fold less potent than 10d and 14e, LNCaP (LNCaP; relative to 10d and 14e): 2 to 3 fold |
